{"source": "patent US10858393B2", "about": "“Crystal of reduced glutathione and method for producing same” (KYOWA HAKKO BIO CO., LTD., priority 2016, dated 2020)", "key": {"[1]": {"conditions": "100 g/L in water, hermetically sealed, 25° C. or 40° C., FIG. 1", "procedure": "The vertical axis represents the peak area of L-cysteinyl-L-glycine with respect to the peak area of reduced glutathione which is taken as 100 in an HPLC analysis of the aqueous solution. […] In FIG. 1, the white circles indicate the results at 40° C., and the black lozenges indicate the results at 25° C.\nAn α-type crystal of reduced glutathione (manufactured by Kojin Co., Ltd.) was dissolved in water, and thereafter, the solution was adjusted to 100 g/L and hermetically sealed and placed in a thermostat bath at 25° C. or 40° C. while stirring. These reduced glutathione aqueous solutions were sampled over time and subjected to an HPLC analysis."}, "[2]": {"conditions": "cited from earlier work"}}, "note": "Read-outs that look alike come from different tables or passages of the source.", "data": [{"smiles": "N[C@@H](CCC(=O)N[C@@H](CS)C(=O)NCC(=O)O)C(=O)O", "note": "[reduced glutathione, γ-L-glutamyl-L-cysteinyl-L-glycine]", "values": [{"measurement": "stability in aqueous solution (formation of L-cysteinyl-L-glycine over time, HPLC)", "setting": "[1]", "result": "decomposed over time in a temperature-dependent manner to produce L-cysteinyl-L-glycine"}, {"measurement": "saturation solubility in water", "setting": "[2]; 10° C.", "result": 83, "unit": "mg/mL"}, {"measurement": "saturation solubility in water", "setting": "[2]; 25° C.", "result": 130, "unit": "mg/mL"}]}]}
